Values joined by “and” are separate entries in the source; they are usually repeats but may differ in a detail not shown here. Identical values can stand only once. Like-named read-outs stand apart in the source and are kept apart here. Blank lines part the entries; values can stand above or below the compound they belong to.
What was measured:
thrombin [1] = assay: One or both of the two assays (wet and cartridge), summary of effective thrombin inhibitors; assay type: biochemical; conditions: wet and/or cartridge assay; result in words
thrombin [2] = molecular target: T1, thrombin (Bos taurus, UniProt P00735); assay: Cartridge assay (CoaguChek Plus), dried thrombin reagent in cartridge, inhibitor added to sample; assay type: biochemical, bovine; design: adding thrombin (Calbiochem 605157 bovine) to the HEPES Base solution; purchased Calbiochem 605157; conditions: for Concentration in reagent found to be effective: clotting time above 10 s and below 300 s for fibrinogen 50 to 400 mg/dL, under 10 s without inhibitor
Experimental: An assay cartridge as described above was constructed in which the reagent chamber was coated with a dried reagent containing thrombin in a HEPES buffer matrix. Liquid samples containing latex beads as blood cell surrogates and various levels of fibrinogen were introduced into the cartridge contained within a CoaguChek™ Plus device. Just prior to introducing a sample into the device, the particular thrombin modulator being tested was added to the sample. A variety of thrombin modulators were tested in this manner.
A HEPES Base solution, pH=7.4, was formed from the following ingredients:
A thrombin solution was formed by adding thrombin (Calbiochem 605157 bovine) to the HEPES Base solution, the resulting concentration being 67 units/mL thrombin.
A 10% solution by weight of polystyrene spheres with a mean diameter of 3.27 μm (Bang Laboratories P0032700) was utilized as a blood cell surrogate for plasma or synthetic blood solutions “plastic sphere solution”).
Test cartridges were prepared by applying 3 microliters of the thrombin solution thereto and drying the solution. For each sample, a fresh “thrombin” cartridge was utilized.
Cartridges containing the dried thrombin reagent were utilized for the following experiments. Standard solutions were prepared in accordance with Example 3, except the thrombin inhibitor concentration was fixed, and the fibrinogen concentrations varied.

thrombin [3] = molecular target: T1, thrombin
Experimental: Additional cartridges were prepared in which specific inhibitors were combined with the thrombin solution, the thrombin inhibitor/thrombin solution deposited in the cartridge, and dried. […] The TDS reagent (3 microliters) was applied to cartridges and dried. Fibrinogen test samples for these cartridges comprised 40 μL of the fibrinogen working solution combined with 7 μL of the plastic sphere solution.

thrombin [4] = assay: Wet screening assay for thrombin inhibitors with BBL Fibrometer (clotting time of fibrinogen solutions); assay type: biochemical, human plasma or bovine; conditions: for Clot Time: 200 μL 0.5 mg/mL D.S. working solution, 50 μL 100 U/mL thrombin; for Found useful/effective as thrombin inhibitor in fibrometer wet assay: result in words; for Clotting Time (average), n = 2: 15 mg/mL benzamidine (final concentration)
Experimental: Materials and Methods: A phosphate buffered saline (PBS)-albumin solution was formed as follows:
2) 100 U/mL thrombin working solution; thrombin was obtained from Calbiochem (605206—human plasma, or 605157—bovine); and
3) fibrinogen working solutions having fibrinogen concentrations ranging from between 6 and 24 mg/mL fibrinogen; fibrinogen was obtained from Calbiochem (341578).
Screening Assay Procedure Using Fibrometer: A BBL Fibrometer was utilized to determine clotting times of test solutions. Test solutions were formed by adding the following components in the following order:
1. 200 μL D.S. working solution,
2. 50 μL thrombin working solution,
3. 50 μL fibrinogen working solution.
Immediately upon addition of the third component (i.e., the fibrinogen working solution), the fibrometer was activated, resulting in the probe being released into the vessel containing the reaction solution. The probe was agitated until sufficient resistance to motion was reached corresponding to a predetermined degree of clotting. A display indicated time from activation of the probe until the predetermined degree of clotting was reached.
Using the method of Example 1, 15 mg/mL benzamidine (Sigma B6506) in the PBS-albumin solution (final concentration) was contacted with samples containing varying amounts of fibrinogen.

Compound: Polyanetholesulfate
Thrombin inhibitor found to be effective (thrombin [1]): effective

Compound: dextran sulfate [dextran sulfate (5,000-50,000 MW)]
Thrombin inhibitor found to be effective (thrombin [1]): effective

Concentration in reagent found to be effective (thrombin [2]): 5 mg/mL
Compound: dextran sulfate [Dextran Sulfate-5,000 Da]

Clotting Time After Application To Inlet Port Of Cartridge Containing Thrombin Reagent (thrombin [2]; […] Gly-Pro-Arg peptide, fibrinogen 100 mg/mL (so in the source)): 239.6 s | Clotting Time After Application To Inlet Port Of Cartridge Containing Thrombin Reagent (thrombin [2]; […] Gly-Pro-Arg peptide, fibrinogen 102 mg/mL (so in the source)): 44.1 s | Clotting Time After Application To Inlet Port Of Cartridge Containing Thrombin Reagent (thrombin [2]; […] Gly-Pro-Arg peptide, fibrinogen 204 mg/mL (so in the source)): 9.9 s
Compound: Gly-Pro-Arg

Compound: Cn1c(=O)c2c(ncn2C)n(C)c1=O [Caffeine, caffeine]
Thrombin inhibitor found to be effective (thrombin [1]): effective | Clotting Time After Application To Inlet Port Of Cartridge Containing Thrombin Reagent (thrombin [2]; […] caffeine, fibrinogen 100 mg/mL (so in the source)): 88.8 s | Clotting Time After Application To Inlet Port Of Cartridge Containing Thrombin Reagent (thrombin [2]; […] caffeine, fibrinogen 200 mg/mL (so in the source)): 30.0 s | Clotting Time After Application To Inlet Port Of Cartridge Containing Thrombin Reagent (thrombin [2]; […] caffeine, fibrinogen 400 mg/mL (so in the source)): 24.8 s

Clotting Time After Application To Inlet Port Of Cartridge Containing Thrombin Reagent (thrombin [2]; 43 mg/mL aprosulate, fibrinogen 76 mg/mL (so in the source)): 149.1 s | Clotting Time After Application To Inlet Port Of Cartridge Containing Thrombin Reagent (thrombin [2]; 43 mg/mL aprosulate, fibrinogen 153 mg/mL (so in the source)): 85.5 s | Clotting Time After Application To Inlet Port Of Cartridge Containing Thrombin Reagent (thrombin [2]; 43 mg/mL aprosulate, fibrinogen 306 mg/mL (so in the source)): 21.4 s | Average Clotting Time After Application To Inlet Port Of Cartridge (n = 2) (thrombin [3]; TA reagent dried in cartridge (67 units/mL thrombin, 20 10 g/dL aprosulate as printed), fibrinogen 25.5 mg/mL (so in the source)): 275 s | Average Clotting Time After Application To Inlet Port Of Cartridge (n = 2) (thrombin [3]; TA reagent dried in cartridge, fibrinogen 102 mg/mL (so in the source)): 134 s | Average Clotting Time After Application To Inlet Port Of Cartridge (n = 2) (thrombin [3]; TA reagent dried in cartridge, fibrinogen 204 mg/mL (so in the source)): 41 s | Average Clotting Time After Application To Inlet Port Of Cartridge (n = 2) (thrombin [3]; TA reagent dried in cartridge, fibrinogen 408 mg/mL (so in the source)): 24 s
Compound: O=C(NCCCNC(=O)[C@H](OS(=O)(=O)O)[C@@H](OS(=O)(=O)O)[C@H](O[C@@H]1O[C@H](COS(=O)(=O)O)[C@H](OS(=O)(=O)O)[C@H](OS(=O)(=O)O)[C@H]1OS(=O)(=O)O)[C@@H](COS(=O)(=O)O)OS(=O)(=O)O)[C@H](OS(=O)(=O)O)[C@@H](OS(=O)(=O)O)[C@H](O[C@@H]1O[C@H](COS(=O)(=O)O)[C@H](OS(=O)(=O)O)[C@H](OS(=O)(=O)O)[C@H]1OS(=O)(=O)O)[C@@H](COS(=O)(=O)O)OS(=O)(=O)O [Aprosulate, aprosulate]
Thrombin inhibitor found to be effective (thrombin [1]): effective

Clotting Time After Application To Inlet Port Of Cartridge Containing Thrombin Reagent (thrombin [2]; 21 mg/mL dextran sulfate (10,000 Da), fibrinogen 100 mg/mL (so in the source) in combined assay solution): 157.5 s | Clotting Time After Application To Inlet Port Of Cartridge Containing Thrombin Reagent (thrombin [2]; 21 mg/mL dextran sulfate (10,000 Da), fibrinogen 102 mg/mL (so in the source)): 81.9 s | Clotting Time After Application To Inlet Port Of Cartridge Containing Thrombin Reagent (thrombin [2]; 21 mg/mL dextran sulfate (10,000 Da), fibrinogen 204 mg/mL (so in the source)): 28.6 s | Clotting Time After Application To Inlet Port Of Cartridge (thrombin [3]; TDS reagent dried in cartridge (67 units/mL thrombin, 57 mg/mL dextran sulfate 10,000 Da), fibrinogen 198 mg/mL (so in the source)): 40.0 s | Clotting Time After Application To Inlet Port Of Cartridge (thrombin [3]; TDS reagent dried in cartridge (67 units/mL thrombin, 57 mg/mL dextran sulfate 10,000 Da), fibrinogen 396 mg/mL (so in the source)): 26.7 s | Clotting Time After Application To Inlet Port Of Cartridge (thrombin [3]; TDS reagent dried in cartridge (67 units/mL thrombin, 57 mg/mL dextran sulfate 10,000 Da, 3 microliters), fibrinogen 99 mg/mL (so in the source)): 69.6 s
Compound: dextran sulfate [dextran sulfate (10,000 Da)]
Clot Time (thrombin [4]; final assay fibrinogen 100 mg/dL, about 0.6 s without dextran sulfate): 22.8 s | Clot Time (thrombin [4]; final assay fibrinogen 200 mg/dL): 11.8 s | Clot Time (thrombin [4]; final assay fibrinogen 250 mg/dL): 9.8 s | Clot Time (thrombin [4]; final assay fibrinogen 400 mg/dL): 1.2 s | Found useful/effective as thrombin inhibitor in fibrometer wet assay (thrombin [4]): useful thrombin inhibitor reagent

Compound: Gly-Gly-Arg
Thrombin inhibitor found to be effective (thrombin [1]): effective | Concentration in reagent found to be effective (thrombin [2]): 0.85 mg/mL and 1.3 mg/mL

Compound: dextran sulfate
Found useful/effective as thrombin inhibitor in fibrometer wet assay (thrombin [4]; listed as dextran sulfate (50,000 Da—Dextralip 50)): effective

Compound: Polyvinylsulfate
Thrombin inhibitor found to be effective (thrombin [1]): effective

Compound: Gly-Pro-Ala
Thrombin inhibitor found to be effective (thrombin [1]): effective

Compound: N=C(N)c1ccccc1 [benzamidine]
Thrombin inhibitor found to be effective (thrombin [1]): effective | Clotting Time (average), n = 2 (thrombin [4]; sample fibrinogen 100 mg/dL): 242 s | Clotting Time (average), n = 2 (thrombin [4]; sample fibrinogen 200 mg/dL): 139 s | Clotting Time (average), n = 2 (thrombin [4]; sample fibrinogen 400 mg/dL): 93 s
